Key:
Assay in all cases: kinome screen (33PanQinase)
Format in all cases: biochemical
PKCε = target: T1, PKCε (Homo sapiens, UniProt Q02156)
T1 construct: purchased Reaction Biology Europe GmbH (formerly ProQinase)
T1 sequence (Q02156 1-737): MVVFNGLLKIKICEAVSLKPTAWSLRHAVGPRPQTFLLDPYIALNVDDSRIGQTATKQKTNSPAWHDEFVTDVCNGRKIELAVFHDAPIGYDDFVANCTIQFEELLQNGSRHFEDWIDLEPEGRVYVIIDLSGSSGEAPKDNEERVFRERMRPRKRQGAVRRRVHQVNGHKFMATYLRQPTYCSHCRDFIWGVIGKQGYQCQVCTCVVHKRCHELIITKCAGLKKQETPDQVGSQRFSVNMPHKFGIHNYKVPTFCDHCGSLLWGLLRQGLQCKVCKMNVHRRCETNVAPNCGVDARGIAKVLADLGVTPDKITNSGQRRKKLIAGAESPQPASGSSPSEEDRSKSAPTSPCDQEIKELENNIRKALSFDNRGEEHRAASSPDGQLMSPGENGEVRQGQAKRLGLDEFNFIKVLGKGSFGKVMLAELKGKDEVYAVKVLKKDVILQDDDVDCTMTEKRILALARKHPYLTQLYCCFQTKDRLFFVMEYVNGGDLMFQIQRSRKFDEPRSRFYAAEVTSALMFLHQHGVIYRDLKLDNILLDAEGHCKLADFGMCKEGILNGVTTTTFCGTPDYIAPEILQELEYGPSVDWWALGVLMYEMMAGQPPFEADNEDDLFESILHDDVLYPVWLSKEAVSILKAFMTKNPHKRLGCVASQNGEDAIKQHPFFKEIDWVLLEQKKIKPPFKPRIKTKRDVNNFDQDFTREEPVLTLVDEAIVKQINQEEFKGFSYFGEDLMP
Experimental: (§1) The Kinome Screening was performed by Reaction Biology Europe GmbH (http://reactionbiology.com; Freiburg i. Br., Germany).

IRAK4 = target: T2, IRAK4 (Homo sapiens, UniProt Q9NWZ3)
T2 construct: purchased Reaction Biology Europe GmbH (formerly ProQinase)
T2 sequence (Q9NWZ3 1-460): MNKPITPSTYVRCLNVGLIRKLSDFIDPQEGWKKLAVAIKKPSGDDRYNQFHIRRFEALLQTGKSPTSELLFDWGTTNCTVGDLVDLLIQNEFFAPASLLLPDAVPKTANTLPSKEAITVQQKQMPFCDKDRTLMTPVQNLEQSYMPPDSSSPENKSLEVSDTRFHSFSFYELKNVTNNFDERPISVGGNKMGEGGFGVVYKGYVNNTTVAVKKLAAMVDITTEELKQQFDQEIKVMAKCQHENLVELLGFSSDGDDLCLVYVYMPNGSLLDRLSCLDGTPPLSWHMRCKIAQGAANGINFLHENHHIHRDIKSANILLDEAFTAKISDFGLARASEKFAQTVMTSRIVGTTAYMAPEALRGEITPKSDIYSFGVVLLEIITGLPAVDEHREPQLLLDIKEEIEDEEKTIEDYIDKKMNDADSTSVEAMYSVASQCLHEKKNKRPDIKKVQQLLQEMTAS
Experimental: as §1

CDK6/CycD3 = target: T3, CDK6/CycD3 (Homo sapiens, UniProt Q00534)
T3 construct: purchased Reaction Biology Europe GmbH (formerly ProQinase)
Experimental: as §1

SLK = target: T4, SLK (Homo sapiens, UniProt Q9H2G2)
T4 construct: purchased Reaction Biology Europe GmbH (formerly ProQinase)
Experimental: as §1

ERK2 = target: T5, ERK2 (Homo sapiens, UniProt P28482)
T5 construct: purchased Reaction Biology Europe GmbH (formerly ProQinase)
Experimental: as §1

CHK1 = target: T6, CHK1 (Homo sapiens, UniProt O14757)
T6 construct: purchased Reaction Biology Europe GmbH (formerly ProQinase)
T6 sequence (O14757 1-476): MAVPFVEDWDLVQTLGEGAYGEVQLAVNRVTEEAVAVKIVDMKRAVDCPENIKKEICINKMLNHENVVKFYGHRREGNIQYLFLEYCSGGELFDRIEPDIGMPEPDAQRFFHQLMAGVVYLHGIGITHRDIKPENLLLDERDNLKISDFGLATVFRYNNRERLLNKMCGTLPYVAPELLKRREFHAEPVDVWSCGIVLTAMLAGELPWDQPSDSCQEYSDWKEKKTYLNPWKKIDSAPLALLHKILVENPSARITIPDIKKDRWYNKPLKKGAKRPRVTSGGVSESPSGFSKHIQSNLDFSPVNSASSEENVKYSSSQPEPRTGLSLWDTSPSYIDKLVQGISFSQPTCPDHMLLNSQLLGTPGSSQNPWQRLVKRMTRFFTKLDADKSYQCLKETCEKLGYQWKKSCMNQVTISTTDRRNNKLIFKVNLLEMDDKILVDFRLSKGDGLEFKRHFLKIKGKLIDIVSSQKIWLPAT
Experimental: as §1

MEK1 = target: T7, MEK1 (Homo sapiens, UniProt Q02750)
T7 construct: purchased Reaction Biology Europe GmbH (formerly ProQinase)
Experimental: as §1

ROCK1 = target: T8, ROCK1 (Homo sapiens, UniProt Q13464)
T8 construct: purchased Reaction Biology Europe GmbH (formerly ProQinase)
Experimental: as §1

HCK = target: T9, HCK (Homo sapiens, UniProt P08631)
T9 construct: purchased Reaction Biology Europe GmbH (formerly ProQinase)
Experimental: as §1

ALK = target: T10, ALK (Homo sapiens, UniProt Q9UM73)
T10 construct: purchased Reaction Biology Europe GmbH (formerly ProQinase)
Experimental: as §1

GRK4 = target: T11, GRK4 (Homo sapiens, UniProt P32298)
T11 construct: purchased Reaction Biology Europe GmbH (formerly ProQinase)
Experimental: as §1

COT = target: T12, COT (Homo sapiens, UniProt P41279)
T12 construct: purchased Reaction Biology Europe GmbH (formerly ProQinase)
Experimental: as §1

RPS6KA1 = target: T13, RPS6KA1 (Homo sapiens, UniProt Q15418)
T13 construct: purchased Reaction Biology Europe GmbH (formerly ProQinase)
Experimental: as §1

ABL2 = target: T14, ABL2 (Homo sapiens, UniProt P42684)
T14 construct: purchased Reaction Biology Europe GmbH (formerly ProQinase)
Experimental: as §1

T12 sequence (P41279 whole entry): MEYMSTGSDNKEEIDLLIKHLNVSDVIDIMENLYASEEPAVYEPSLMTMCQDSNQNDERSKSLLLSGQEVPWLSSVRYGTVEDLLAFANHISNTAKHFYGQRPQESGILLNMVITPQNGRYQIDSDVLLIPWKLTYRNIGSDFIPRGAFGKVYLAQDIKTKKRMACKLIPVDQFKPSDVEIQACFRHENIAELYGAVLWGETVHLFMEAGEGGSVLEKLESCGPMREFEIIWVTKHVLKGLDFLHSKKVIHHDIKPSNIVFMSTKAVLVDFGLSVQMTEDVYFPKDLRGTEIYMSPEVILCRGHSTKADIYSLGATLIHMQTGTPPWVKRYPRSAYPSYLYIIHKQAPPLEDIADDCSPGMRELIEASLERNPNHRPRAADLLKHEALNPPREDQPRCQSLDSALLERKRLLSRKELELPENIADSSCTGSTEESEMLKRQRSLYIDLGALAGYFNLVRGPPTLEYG
T13 sequence (Q15418 whole entry): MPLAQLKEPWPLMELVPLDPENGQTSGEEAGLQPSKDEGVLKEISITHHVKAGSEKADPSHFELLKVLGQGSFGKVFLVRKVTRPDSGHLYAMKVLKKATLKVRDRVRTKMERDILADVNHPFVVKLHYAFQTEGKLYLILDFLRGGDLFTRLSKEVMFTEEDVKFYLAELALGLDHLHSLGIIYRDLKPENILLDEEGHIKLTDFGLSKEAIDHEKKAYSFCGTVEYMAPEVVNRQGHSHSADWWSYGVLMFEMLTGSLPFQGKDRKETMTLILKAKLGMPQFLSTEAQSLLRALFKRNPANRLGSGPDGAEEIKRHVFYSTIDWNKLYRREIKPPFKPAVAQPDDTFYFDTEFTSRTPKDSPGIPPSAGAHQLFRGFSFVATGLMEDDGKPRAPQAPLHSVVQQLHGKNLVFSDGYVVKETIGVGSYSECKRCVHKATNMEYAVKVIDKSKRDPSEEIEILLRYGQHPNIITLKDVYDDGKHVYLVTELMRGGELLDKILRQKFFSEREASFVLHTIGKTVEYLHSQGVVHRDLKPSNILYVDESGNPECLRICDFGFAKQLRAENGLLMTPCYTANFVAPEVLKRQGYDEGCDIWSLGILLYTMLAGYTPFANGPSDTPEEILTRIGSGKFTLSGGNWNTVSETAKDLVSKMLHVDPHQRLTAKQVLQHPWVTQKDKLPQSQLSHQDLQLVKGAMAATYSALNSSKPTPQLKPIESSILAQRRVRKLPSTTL
T9 sequence (P08631 whole entry): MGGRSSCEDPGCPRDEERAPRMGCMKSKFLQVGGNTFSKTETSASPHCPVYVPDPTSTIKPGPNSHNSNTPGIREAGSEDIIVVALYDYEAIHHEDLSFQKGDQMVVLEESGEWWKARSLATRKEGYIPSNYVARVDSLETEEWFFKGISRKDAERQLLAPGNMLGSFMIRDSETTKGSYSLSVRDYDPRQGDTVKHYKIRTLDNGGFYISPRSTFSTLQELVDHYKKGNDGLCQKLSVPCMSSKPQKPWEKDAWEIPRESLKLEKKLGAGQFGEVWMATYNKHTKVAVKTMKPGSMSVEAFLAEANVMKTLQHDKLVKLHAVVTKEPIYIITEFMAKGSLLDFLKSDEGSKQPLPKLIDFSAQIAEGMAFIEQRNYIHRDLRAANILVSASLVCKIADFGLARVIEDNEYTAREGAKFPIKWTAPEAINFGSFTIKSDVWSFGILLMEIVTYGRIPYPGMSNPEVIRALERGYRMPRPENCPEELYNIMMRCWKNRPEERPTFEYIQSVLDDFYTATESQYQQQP
T5 sequence (P28482 whole entry): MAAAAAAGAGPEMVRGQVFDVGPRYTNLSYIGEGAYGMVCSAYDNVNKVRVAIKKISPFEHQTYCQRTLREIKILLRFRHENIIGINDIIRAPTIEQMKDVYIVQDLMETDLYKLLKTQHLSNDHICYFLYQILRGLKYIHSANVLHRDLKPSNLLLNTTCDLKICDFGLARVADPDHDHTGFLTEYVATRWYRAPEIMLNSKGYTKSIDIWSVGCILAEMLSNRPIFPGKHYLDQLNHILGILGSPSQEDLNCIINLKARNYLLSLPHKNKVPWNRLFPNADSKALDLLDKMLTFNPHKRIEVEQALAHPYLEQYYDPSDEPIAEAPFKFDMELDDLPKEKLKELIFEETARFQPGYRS
T4 sequence (Q9H2G2 whole entry): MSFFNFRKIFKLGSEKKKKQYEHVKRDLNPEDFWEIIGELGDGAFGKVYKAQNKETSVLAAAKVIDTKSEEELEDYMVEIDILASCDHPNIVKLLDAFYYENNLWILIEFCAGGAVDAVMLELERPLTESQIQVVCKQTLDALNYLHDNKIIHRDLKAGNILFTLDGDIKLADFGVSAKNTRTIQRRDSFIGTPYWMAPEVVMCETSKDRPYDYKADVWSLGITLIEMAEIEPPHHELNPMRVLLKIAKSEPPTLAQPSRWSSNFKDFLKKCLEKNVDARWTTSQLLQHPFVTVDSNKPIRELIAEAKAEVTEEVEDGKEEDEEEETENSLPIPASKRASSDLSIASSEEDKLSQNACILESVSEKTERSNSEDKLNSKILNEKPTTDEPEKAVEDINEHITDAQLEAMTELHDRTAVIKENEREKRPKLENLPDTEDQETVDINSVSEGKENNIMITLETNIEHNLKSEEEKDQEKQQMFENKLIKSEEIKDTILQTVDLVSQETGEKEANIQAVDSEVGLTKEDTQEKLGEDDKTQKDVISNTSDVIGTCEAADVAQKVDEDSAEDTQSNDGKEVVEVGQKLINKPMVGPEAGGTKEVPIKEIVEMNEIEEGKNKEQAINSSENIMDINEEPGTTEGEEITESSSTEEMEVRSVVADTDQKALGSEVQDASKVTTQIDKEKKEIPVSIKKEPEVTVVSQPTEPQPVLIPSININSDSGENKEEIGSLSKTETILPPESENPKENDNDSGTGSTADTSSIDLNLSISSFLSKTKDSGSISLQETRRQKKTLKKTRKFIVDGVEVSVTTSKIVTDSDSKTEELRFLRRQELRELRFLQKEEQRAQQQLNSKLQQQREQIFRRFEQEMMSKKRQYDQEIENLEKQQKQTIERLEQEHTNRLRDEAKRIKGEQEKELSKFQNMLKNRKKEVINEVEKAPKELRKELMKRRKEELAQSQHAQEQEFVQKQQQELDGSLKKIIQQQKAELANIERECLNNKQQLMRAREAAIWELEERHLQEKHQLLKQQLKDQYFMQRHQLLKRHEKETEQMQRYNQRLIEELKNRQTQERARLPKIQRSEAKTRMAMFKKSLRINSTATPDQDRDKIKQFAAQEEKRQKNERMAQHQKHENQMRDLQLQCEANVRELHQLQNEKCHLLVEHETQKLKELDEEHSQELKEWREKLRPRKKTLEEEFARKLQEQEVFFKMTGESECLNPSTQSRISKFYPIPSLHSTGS
T14 sequence (P42684 whole entry): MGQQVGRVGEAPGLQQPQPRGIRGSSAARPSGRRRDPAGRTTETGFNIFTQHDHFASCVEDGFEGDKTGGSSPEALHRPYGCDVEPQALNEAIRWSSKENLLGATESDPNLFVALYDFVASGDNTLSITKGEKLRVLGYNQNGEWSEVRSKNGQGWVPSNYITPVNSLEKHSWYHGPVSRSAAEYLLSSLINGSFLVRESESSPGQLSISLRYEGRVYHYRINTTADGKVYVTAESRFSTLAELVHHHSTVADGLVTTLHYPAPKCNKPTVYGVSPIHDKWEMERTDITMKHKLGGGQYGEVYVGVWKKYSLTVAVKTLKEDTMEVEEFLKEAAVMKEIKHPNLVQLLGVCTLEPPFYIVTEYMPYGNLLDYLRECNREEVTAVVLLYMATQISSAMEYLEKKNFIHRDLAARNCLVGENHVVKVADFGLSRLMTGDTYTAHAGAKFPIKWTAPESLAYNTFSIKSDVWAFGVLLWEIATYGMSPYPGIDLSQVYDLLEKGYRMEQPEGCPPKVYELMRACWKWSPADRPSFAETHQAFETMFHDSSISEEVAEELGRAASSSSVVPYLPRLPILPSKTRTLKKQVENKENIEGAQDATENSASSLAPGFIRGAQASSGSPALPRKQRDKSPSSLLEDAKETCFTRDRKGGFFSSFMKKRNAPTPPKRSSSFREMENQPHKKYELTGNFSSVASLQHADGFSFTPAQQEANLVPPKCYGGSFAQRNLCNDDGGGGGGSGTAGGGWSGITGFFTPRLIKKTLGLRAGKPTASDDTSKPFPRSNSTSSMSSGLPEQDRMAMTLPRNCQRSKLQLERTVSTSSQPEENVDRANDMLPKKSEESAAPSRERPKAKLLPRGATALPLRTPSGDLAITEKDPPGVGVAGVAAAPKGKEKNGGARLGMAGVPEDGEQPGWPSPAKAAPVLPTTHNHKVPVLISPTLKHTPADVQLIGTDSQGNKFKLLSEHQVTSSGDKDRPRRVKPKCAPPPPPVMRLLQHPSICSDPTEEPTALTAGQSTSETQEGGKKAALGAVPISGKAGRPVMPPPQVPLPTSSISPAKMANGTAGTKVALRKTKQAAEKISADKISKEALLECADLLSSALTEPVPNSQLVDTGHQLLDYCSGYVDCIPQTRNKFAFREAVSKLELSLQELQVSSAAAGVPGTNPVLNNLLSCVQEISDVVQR
T7 sequence (Q02750 whole entry): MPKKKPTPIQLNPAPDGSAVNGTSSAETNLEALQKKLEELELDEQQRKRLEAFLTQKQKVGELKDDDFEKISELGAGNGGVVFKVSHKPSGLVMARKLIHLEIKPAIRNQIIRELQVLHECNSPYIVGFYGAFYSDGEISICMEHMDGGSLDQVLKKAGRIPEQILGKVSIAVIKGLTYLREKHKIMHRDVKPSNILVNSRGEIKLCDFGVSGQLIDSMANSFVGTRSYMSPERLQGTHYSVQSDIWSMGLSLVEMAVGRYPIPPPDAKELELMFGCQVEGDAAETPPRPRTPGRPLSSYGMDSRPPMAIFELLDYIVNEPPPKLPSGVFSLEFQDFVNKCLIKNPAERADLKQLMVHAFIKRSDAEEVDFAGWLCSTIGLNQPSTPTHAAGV

SMILES	residual kinase activity (PKCε; 0.3 µM)	residual kinase activity (IRAK4; 0.3 µM)	residual kinase activity (CDK6/CycD3; 0.3 µM)	residual kinase activity (SLK; 0.3 µM)	residual kinase activity (ERK2; 0.3 µM)	residual kinase activity (CHK1; 0.3 µM)	residual kinase activity (MEK1; 0.3 µM)	residual kinase activity (ROCK1; 0.3 µM)	residual kinase activity (HCK; 0.3 µM)	residual kinase activity (ALK; 0.3 µM)	residual kinase activity (GRK4; 0.3 µM)	residual kinase activity (COT; 0.3 µM)	residual kinase activity (RPS6KA1; 0.3 µM)	residual kinase activity (ABL2; 0.3 µM)	further results
c1ccc(CNc2cc(-c3c[nH]c4ncccc34)ccn2)cc1 [meriolin 36]	5 % of control	14 % of control	76 % of control	4 % of control	79 % of control	76 % of control	35 % of control	1 % of control	75 % of control	60 % of control	108 % of control	85 % of control	20 % of control	56 % of control	residual kinase activity (PKCε; 3 µM): 1 % of control; residual kinase activity (IRAK4; 3 µM): 2 % of control; residual kinase activity (CDK6/CycD3; 3 µM): 26 % of control; residual kinase activity (SLK; 3 µM): 1 % of control; residual kinase activity (ERK2; 3 µM): 30 % of control; residual kinase activity (CHK1; 3 µM): 40 % of control; residual kinase activity (MEK1; 3 µM): 6 % of control; residual kinase activity (ROCK1; 3 µM): 1 % of control; residual kinase activity (HCK; 3 µM): 25 % of control; residual kinase activity (ALK; 3 µM): 14 % of control; residual kinase activity (GRK4; 3 µM): 95 % of control; residual kinase activity (COT; 3 µM): 92 % of control; residual kinase activity (RPS6KA1; 3 µM): 10 % of control; residual kinase activity (ABL2; 3 µM): 18 % of control
COc1ccnc2[nH]cc(-c3cc(N)nc(N)c3)c12 [meriolin 16]	4 % of control	50 % of control	98 % of control	77 % of control	87 % of control	87 % of control	102 % of control	2 % of control	81 % of control	77 % of control	90 % of control	86 % of control	22 % of control	91 % of control	residual kinase activity (PKCε; 0.03 µM): 25 % of control; residual kinase activity (IRAK4; 0.03 µM): 83 % of control; residual kinase activity (CDK6/CycD3; 0.03 µM): 88 % of control; residual kinase activity (SLK; 0.03 µM): 83 % of control; residual kinase activity (ERK2; 0.03 µM): 103 % of control; residual kinase activity (CHK1; 0.03 µM): 96 % of control; residual kinase activity (MEK1; 0.03 µM): 108 % of control; residual kinase activity (ROCK1; 0.03 µM): 24 % of control; residual kinase activity (HCK; 0.03 µM): 106 % of control; residual kinase activity (ALK; 0.03 µM): 104 % of control; residual kinase activity (GRK4; 0.03 µM): 101 % of control; residual kinase activity (COT; 0.03 µM): 104 % of control; residual kinase activity (RPS6KA1; 0.03 µM): 46 % of control; residual kinase activity (ABL2; 0.03 µM): 95 % of control
